Test results as given in ChEMBL document CHEMBL2163297, “Discovery of novel PI3-kinase δ specific inhibitors for the treatment of rheumatoid arthritis: taming CYP3A4 time-dependent inhibition” (J Med Chem, 2012).

Target: T1, Phosphatidylinositol 4,5-bisphosphate 3-kinase catalytic subunit delta isoform (Homo sapiens, UniProt O00329)
T1 sequence (O00329 whole entry): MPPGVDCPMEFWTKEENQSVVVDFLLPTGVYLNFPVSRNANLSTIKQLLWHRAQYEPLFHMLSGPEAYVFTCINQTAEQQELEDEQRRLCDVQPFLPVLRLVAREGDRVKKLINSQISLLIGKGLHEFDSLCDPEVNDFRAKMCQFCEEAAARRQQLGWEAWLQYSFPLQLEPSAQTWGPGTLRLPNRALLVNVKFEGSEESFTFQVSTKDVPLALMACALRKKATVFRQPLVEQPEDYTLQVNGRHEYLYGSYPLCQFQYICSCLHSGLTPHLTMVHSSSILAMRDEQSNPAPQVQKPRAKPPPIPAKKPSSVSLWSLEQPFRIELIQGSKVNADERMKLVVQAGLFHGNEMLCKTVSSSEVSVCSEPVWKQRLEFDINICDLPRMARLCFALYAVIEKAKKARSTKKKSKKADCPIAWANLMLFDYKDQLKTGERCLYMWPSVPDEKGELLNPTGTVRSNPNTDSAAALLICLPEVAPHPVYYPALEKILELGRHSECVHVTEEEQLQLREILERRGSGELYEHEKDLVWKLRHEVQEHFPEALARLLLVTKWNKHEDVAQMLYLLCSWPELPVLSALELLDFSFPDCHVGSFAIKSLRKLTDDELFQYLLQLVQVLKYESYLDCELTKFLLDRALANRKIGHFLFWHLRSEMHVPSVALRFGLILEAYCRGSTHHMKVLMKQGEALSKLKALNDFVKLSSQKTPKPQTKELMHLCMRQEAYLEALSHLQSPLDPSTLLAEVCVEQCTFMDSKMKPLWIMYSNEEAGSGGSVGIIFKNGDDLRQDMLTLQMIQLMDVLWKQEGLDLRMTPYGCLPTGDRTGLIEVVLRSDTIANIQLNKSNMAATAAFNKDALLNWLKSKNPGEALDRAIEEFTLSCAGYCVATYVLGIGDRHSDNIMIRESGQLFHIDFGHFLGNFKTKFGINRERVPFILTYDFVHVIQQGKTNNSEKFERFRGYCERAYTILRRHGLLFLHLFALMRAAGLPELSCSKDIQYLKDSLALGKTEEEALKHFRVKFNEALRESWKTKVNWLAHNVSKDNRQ
Details: not given

Structure (SMILES)	IC50 [nM]
CN(C)C1CCN(Cc2cc3nc(-c4n[nH]c5ccccc45)nc(N4CCOCC4)c3s2)CC1	9.8
CN(C)C1CCN(Cc2cc3nc(-c4c[nH]c5ccccc45)nc(N4CCOCC4)c3s2)CC1	5.6
Cc1nc2ccccc2n1-c1nc(N2CCOCC2)c2sc(CN3CCN(C(C)(C)C(N)=O)CC3)cc2n1	4.3
Fc1ccc2[nH]ccc2c1-c1nc(N2CCOCC2)c2sc(CN3CCN4CCOC[C@H]4C3)cc2n1	9
CS(=O)(=O)N1CCN(Cc2cc3nc(-c4cccc5[nH]ccc45)nc(N4CCOCC4)c3s2)CC1	1.7

More lines, now with the values ahead:

IC50 [nM]	Structure (SMILES)
3.2	CC(C)(C(N)=O)N1CCN(Cc2cc3nc(-c4cc(C#N)cc5[nH]ccc45)nc(N4CCOCC4)c3s2)CC1
3.1	CC(C)(C(N)=O)N1CCN(Cc2cc3nc(-c4cccc5[nH]ncc45)nc(N4CCOCC4)c3s2)CC1
134	Cn1ccc2c(-c3nc(N4CCOCC4)c4sc(CN5CCN(C(C)(C)C(N)=O)CC5)cc4n3)cccc21
0.67	CC(C)(C(N)=O)N1CCN(Cc2cc3nc(-c4cncc5[nH]ccc45)nc(N4CCOCC4)c3s2)CC1
3	CC(C)(C(N)=O)N1CCN(Cc2cc3nc(-c4c(F)ccc5[nH]ccc45)nc(N4CCOCC4)c3s2)CC1
3.5	CC(C)(C(N)=O)N1CCN(Cc2cc3nc(-c4nccc5[nH]ccc45)nc(N4CCOCC4)c3s2)CC1
0.48	CC(C)(C(N)=O)N1CCN(Cc2cc3nc(-c4cc(F)cc5[nH]ccc45)nc(N4CCOCC4)c3s2)CC1
6	CC(C)(C(N)=O)N1CCN(Cc2cc3nc(-c4c(F)cc(F)c5[nH]ccc45)nc(N4CCOCC4)c3s2)CC1

Test system: not listed separately
Test: Clearance in […] Wistar rat at 0.5 mg/kg, iv and 2 mg/kg, po
Format: ADME, organism-based
Details: in vivo

clearance [mL/min/kg]	Structure (SMILES)
31.3	CC(C)(C(N)=O)N1CCN(Cc2cc3nc(-c4c(F)ccc5[nH]ccc45)nc(N4CCOCC4)c3s2)CC1
25.2	Fc1ccc2[nH]ccc2c1-c1nc(N2CCOCC2)c2sc(CN3CCN4CCOC[C@H]4C3)cc2n1

Target: CYP3A4 (Homo sapiens, UniProt P08684)
Sequence (P08684 whole entry): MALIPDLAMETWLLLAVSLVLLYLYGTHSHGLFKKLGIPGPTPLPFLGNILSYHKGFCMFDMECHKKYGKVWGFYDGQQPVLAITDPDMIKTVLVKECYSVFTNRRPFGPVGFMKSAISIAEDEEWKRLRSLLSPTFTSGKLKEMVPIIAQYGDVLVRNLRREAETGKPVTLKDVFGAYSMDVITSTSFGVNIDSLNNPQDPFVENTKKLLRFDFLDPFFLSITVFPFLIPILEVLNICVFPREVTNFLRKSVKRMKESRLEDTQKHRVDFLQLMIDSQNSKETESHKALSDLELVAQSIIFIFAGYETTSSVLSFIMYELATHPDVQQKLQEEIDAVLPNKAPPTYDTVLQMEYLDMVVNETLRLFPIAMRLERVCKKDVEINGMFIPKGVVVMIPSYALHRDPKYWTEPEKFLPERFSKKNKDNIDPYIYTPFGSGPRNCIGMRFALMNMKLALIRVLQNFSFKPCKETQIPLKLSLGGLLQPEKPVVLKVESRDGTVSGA
Test: (§1) Time dependent inhibition of CYP3A4 in human liver microsomes preincubated for 30 mins
Format: ADME, Microsome
Details: human, liver microsomes

kinact at 30 min [s⁻¹]	Structure (SMILES)
0.00123	CC(C)(C(N)=O)N1CCN(Cc2cc3nc(-c4c(F)ccc5[nH]ccc45)nc(N4CCOCC4)c3s2)CC1
0.0008	Fc1ccc2[nH]ccc2c1-c1nc(N2CCOCC2)c2sc(CN3CCN4CCOC[C@H]4C3)cc2n1

Target: T2, Cytochrome P450 3A4 (Homo sapiens, UniProt P08684)
T2 sequence (P08684 whole entry): as above
Test: as §1
Format: ADME, Microsome
Details: not given

Structure (SMILES)	IC50 [nM]	Ki [nM]
CCc1nc2ccccc2n1-c1nc(N2CCOCC2)c2sc(CN3CCC(C(C)(C)O)CC3)cc2n1	> 10000	–
Cc1nc2ccccc2n1-c1nc(N2CCOCC2)c2sc(CN3CCN(C(C)(C)C(N)=O)CC3)cc2n1	> 10000	–
Fc1ccc2[nH]ccc2c1-c1nc(N2CCOCC2)c2sc(CN3CCN4CCOC[C@H]4C3)cc2n1	7000	78000

Continued, values first:

IC50 [nM]	Ki [nM]	Structure (SMILES)
1200	–	CC(C)(C(N)=O)N1CCN(Cc2cc3nc(-c4cc(C#N)cc5[nH]ccc45)nc(N4CCOCC4)c3s2)CC1
> 10000	–	Cn1ccc2c(-c3nc(N4CCOCC4)c4sc(CN5CCN(C(C)(C)C(N)=O)CC5)cc4n3)cccc21
3200	–	CC(C)(C(N)=O)N1CCN(Cc2cc3nc(-c4cncc5[nH]ccc45)nc(N4CCOCC4)c3s2)CC1
1500	6600	CC(C)(C(N)=O)N1CCN(Cc2cc3nc(-c4c(F)ccc5[nH]ccc45)nc(N4CCOCC4)c3s2)CC1
> 10000	–	CC(C)(C(N)=O)N1CCN(Cc2cc3nc(-c4nccc5[nH]ccc45)nc(N4CCOCC4)c3s2)CC1
510	–	CC(C)(C(N)=O)N1CCN(Cc2cc3nc(-c4cc(F)cc5[nH]ccc45)nc(N4CCOCC4)c3s2)CC1
600	–	CC(C)(C(N)=O)N1CCN(Cc2cc3nc(-c4c(F)cc(F)c5[nH]ccc45)nc(N4CCOCC4)c3s2)CC1

Test system: not listed separately
Test: Oral bioavailability in […] Wistar rat at 2 mg/kg
Format: ADME, organism-based
Details: in vivo

bioavailability [%]	Structure (SMILES)
75.2	CC(C)(C(N)=O)N1CCN(Cc2cc3nc(-c4c(F)ccc5[nH]ccc45)nc(N4CCOCC4)c3s2)CC1
75.5	Fc1ccc2[nH]ccc2c1-c1nc(N2CCOCC2)c2sc(CN3CCN4CCOC[C@H]4C3)cc2n1

Test system: not listed separately
Test: Selectivity ratio of IC50 for PI3Kbeta to IC50 for PI3Kdelta
Details: not given

Structure (SMILES)	Ratio IC50
Cc1nc2ccccc2n1-c1nc(N2CCOCC2)c2sc(CN3CCN(C(C)(C)C(N)=O)CC3)cc2n1	111
Fc1ccc2[nH]ccc2c1-c1nc(N2CCOCC2)c2sc(CN3CCN4CCOC[C@H]4C3)cc2n1	69
CS(=O)(=O)N1CCN(Cc2cc3nc(-c4cccc5[nH]ccc45)nc(N4CCOCC4)c3s2)CC1	25

Now from value to compound:

Ratio IC50	Structure (SMILES)
275	CC(C)(C(N)=O)N1CCN(Cc2cc3nc(-c4cc(C#N)cc5[nH]ccc45)nc(N4CCOCC4)c3s2)CC1
54	CC(C)(C(N)=O)N1CCN(Cc2cc3nc(-c4cccc5[nH]ncc45)nc(N4CCOCC4)c3s2)CC1
75	Cn1ccc2c(-c3nc(N4CCOCC4)c4sc(CN5CCN(C(C)(C)C(N)=O)CC5)cc4n3)cccc21
40	CC(C)(C(N)=O)N1CCN(Cc2cc3nc(-c4cncc5[nH]ccc45)nc(N4CCOCC4)c3s2)CC1
102	CC(C)(C(N)=O)N1CCN(Cc2cc3nc(-c4c(F)ccc5[nH]ccc45)nc(N4CCOCC4)c3s2)CC1
46	CC(C)(C(N)=O)N1CCN(Cc2cc3nc(-c4nccc5[nH]ccc45)nc(N4CCOCC4)c3s2)CC1
80	CC(C)(C(N)=O)N1CCN(Cc2cc3nc(-c4cc(F)cc5[nH]ccc45)nc(N4CCOCC4)c3s2)CC1
137	CC(C)(C(N)=O)N1CCN(Cc2cc3nc(-c4c(F)cc(F)c5[nH]ccc45)nc(N4CCOCC4)c3s2)CC1

Test system: not listed separately
Test: Selectivity ratio of IC50 for PI3Kgamma to IC50 for PI3Kdelta
Details: not given

Structure (SMILES)	Ratio IC50
Cc1nc2ccccc2n1-c1nc(N2CCOCC2)c2sc(CN3CCN(C(C)(C)C(N)=O)CC3)cc2n1	134
Fc1ccc2[nH]ccc2c1-c1nc(N2CCOCC2)c2sc(CN3CCN4CCOC[C@H]4C3)cc2n1	806
CS(=O)(=O)N1CCN(Cc2cc3nc(-c4cccc5[nH]ccc45)nc(N4CCOCC4)c3s2)CC1	268

The remaining lines, values ahead:

Ratio IC50	Structure (SMILES)
691	CC(C)(C(N)=O)N1CCN(Cc2cc3nc(-c4cc(C#N)cc5[nH]ccc45)nc(N4CCOCC4)c3s2)CC1
153	CC(C)(C(N)=O)N1CCN(Cc2cc3nc(-c4cccc5[nH]ncc45)nc(N4CCOCC4)c3s2)CC1
75	Cn1ccc2c(-c3nc(N4CCOCC4)c4sc(CN5CCN(C(C)(C)C(N)=O)CC5)cc4n3)cccc21
243	CC(C)(C(N)=O)N1CCN(Cc2cc3nc(-c4cncc5[nH]ccc45)nc(N4CCOCC4)c3s2)CC1
1880	CC(C)(C(N)=O)N1CCN(Cc2cc3nc(-c4c(F)ccc5[nH]ccc45)nc(N4CCOCC4)c3s2)CC1
2830	CC(C)(C(N)=O)N1CCN(Cc2cc3nc(-c4nccc5[nH]ccc45)nc(N4CCOCC4)c3s2)CC1
566	CC(C)(C(N)=O)N1CCN(Cc2cc3nc(-c4cc(F)cc5[nH]ccc45)nc(N4CCOCC4)c3s2)CC1
350	CC(C)(C(N)=O)N1CCN(Cc2cc3nc(-c4c(F)cc(F)c5[nH]ccc45)nc(N4CCOCC4)c3s2)CC1

Test system: not listed separately
Test: Selectivity ratio of IC50 for PI3Kalpha to IC50 for PI3Kdelta
Details: not given

Structure (SMILES)	Ratio IC50
CN(C)C1CCN(Cc2cc3nc(-c4n[nH]c5ccccc45)nc(N4CCOCC4)c3s2)CC1	65
CN(C)C1CCN(Cc2cc3nc(-c4c[nH]c5ccccc45)nc(N4CCOCC4)c3s2)CC1	88
Cc1nc2ccccc2n1-c1nc(N2CCOCC2)c2sc(CN3CCN(C(C)(C)C(N)=O)CC3)cc2n1	17
Fc1ccc2[nH]ccc2c1-c1nc(N2CCOCC2)c2sc(CN3CCN4CCOC[C@H]4C3)cc2n1	42
CS(=O)(=O)N1CCN(Cc2cc3nc(-c4cccc5[nH]ccc45)nc(N4CCOCC4)c3s2)CC1	22

Second part, the compound after the results:

Ratio IC50	Structure (SMILES)
208	CC(C)(C(N)=O)N1CCN(Cc2cc3nc(-c4cc(C#N)cc5[nH]ccc45)nc(N4CCOCC4)c3s2)CC1
9	CC(C)(C(N)=O)N1CCN(Cc2cc3nc(-c4cccc5[nH]ncc45)nc(N4CCOCC4)c3s2)CC1
18	Cn1ccc2c(-c3nc(N4CCOCC4)c4sc(CN5CCN(C(C)(C)C(N)=O)CC5)cc4n3)cccc21
41	CC(C)(C(N)=O)N1CCN(Cc2cc3nc(-c4cncc5[nH]ccc45)nc(N4CCOCC4)c3s2)CC1
194	CC(C)(C(N)=O)N1CCN(Cc2cc3nc(-c4c(F)ccc5[nH]ccc45)nc(N4CCOCC4)c3s2)CC1
86	CC(C)(C(N)=O)N1CCN(Cc2cc3nc(-c4nccc5[nH]ccc45)nc(N4CCOCC4)c3s2)CC1
77	CC(C)(C(N)=O)N1CCN(Cc2cc3nc(-c4cc(F)cc5[nH]ccc45)nc(N4CCOCC4)c3s2)CC1
96	CC(C)(C(N)=O)N1CCN(Cc2cc3nc(-c4c(F)cc(F)c5[nH]ccc45)nc(N4CCOCC4)c3s2)CC1

Target: T2, Cytochrome P450 3A4
Test: Inhibition of CYP3A4 in human liver microsomes
Format: ADME, Microsome
Details: TDE = time-dependent effect

inhibition (INH)	Structure (SMILES)
tde	CS(=O)(=O)N1CCN(Cc2cc3nc(-c4cccc5[nH]ccc45)nc(N4CCOCC4)c3s2)CC1

Test system: Liver microsomes
Test: Metabolic stability in human liver microsomes
Format: ADME, Microsome
Details: not given

Stability [%]	Structure (SMILES)
82.5	CC(C)(C(N)=O)N1CCN(Cc2cc3nc(-c4c(F)ccc5[nH]ccc45)nc(N4CCOCC4)c3s2)CC1
68.7	Fc1ccc2[nH]ccc2c1-c1nc(N2CCOCC2)c2sc(CN3CCN4CCOC[C@H]4C3)cc2n1

Test system: not listed separately
Test: Volume of distribution at steady state in […] Wistar rat at 0.5 mg/kg, iv and 2 mg/kg, po
Format: ADME, organism-based
Details: in vivo, read-out: Vdss

Vd [L/kg]	Structure (SMILES)
2.38	CC(C)(C(N)=O)N1CCN(Cc2cc3nc(-c4c(F)ccc5[nH]ccc45)nc(N4CCOCC4)c3s2)CC1
2.76	Fc1ccc2[nH]ccc2c1-c1nc(N2CCOCC2)c2sc(CN3CCN4CCOC[C@H]4C3)cc2n1

Test system: Liver microsomes
Test: Metabolic stability in rat liver microsomes
Format: ADME, Microsome
Details: not given

Stability [%]	Structure (SMILES)
90.8	CC(C)(C(N)=O)N1CCN(Cc2cc3nc(-c4c(F)ccc5[nH]ccc45)nc(N4CCOCC4)c3s2)CC1
72.5	Fc1ccc2[nH]ccc2c1-c1nc(N2CCOCC2)c2sc(CN3CCN4CCOC[C@H]4C3)cc2n1
